{"source": "patent US4880809A", "about": "“1,4-disubstituted piperazines (or homopiperazines) as platelet-activating factor antagonists” (Takeda Chemical Industries, Ltd., priority 1987, dated 1989)", "key": {"[1]": {"system": "PAF-Induced Platelet Aggregation", "assay": "Inhibitory Action on PAF-Induced Platelet Aggregation", "type": "cell-based, New Zealand white male rabbits", "details": "Oryctolagus cuniculus, Drug Concentration: 3 × 10^-5 M, rabbit PRP", "method": "Blood was collected from the hearts of conscious New Zealand white male rabbits weighing 2 to 3 kg using citric acid as an anticoagulant (one volume part of 3.15% citric acid per 9 volume parts of the whole blood). The blood was subjected to a centrifuge at 800 rpm for ten minutes to obtain platelet rich plasma (PRP). The remaining blood after collecting the PRP was subjected to a centrifuge at 3000 rpm for ten minutes to obtain platelet poor plasma (PPP). PRP was diluted with PPP, and the number of platelets was adjusted to 500,000/μl. Platelet aggregation was examined by means of turbidimetry [Born, Nature, 194, 927-929 (1962)] with 8 channel aggregometer (NBS HEMA TRACER 6 Nikoh, Bioscience, Japan). More concretely, PRP (250 μl) was kept warm (37° C.) for three minutes in a silicon-processed cuvette, to which was added a test sample (25 μl) dissolved in a physiological saline or in 10mM dimethylsulfoxide followed by dilution with a physiological saline. Two minutes later, PAF (25 μl, 3×10^-9 -1×10^-8 M), dissolved in a physiological saline, was added and then the maximum aggregation rate was determined. As the control, physiological saline without test sample was added to the cuvette, and the inhibitory rate thereon was determined."}, "PAF-Induced Hypotension": {"system": "PAF-Induced Hypotension", "assay": "Inhibitory Action on PAF-Induced Hypotension", "type": "in vivo, SD (Jcl) male rats", "details": "po, 30 mg/kg p.o., rat", "experimental": "SD (Jcl) male rats of 6 to 8 week old were subjected to the experiment. After fasting overnight, the rats were cannulated into the femoral artery and vein under anesthesia with pentobarbital. A transducer (MPU-0.5-290O-III, TOYO BALDWIN, Japan) was connected with the artery cannula, and blood pressure was continuously measured. […] The rate of inhibition of lowering of blood pressure after administration of the test samples against the control was evaluated."}, "ET-induced hypotension": {"system": "ET-induced hypotension", "assay": "Anti-Endotoxin Shock Activity in Rats: ET-induced hypotension", "type": "in vivo, Jcl: SD male rats", "details": "for Blood Pressure: 30 mg/kg p.o. one hour before ET, n = 5", "experimental": "(§1) In a manner similar to that described in Test Example 2, Jcl: SD male rats (200 to 250 g) were applied with cannulation for measurement of blood pressure and for injecting PAF. The test animals were fasted overnight, and the experiments were conducted. The cannula on the side of femoral artery was connected with a pressure transducer and secured. The, endotoxin (ET) (50 mg/kg) was given through the cannula on the side of femoral vein at a rate of 1 ml/kg. While measuring blood pressure continuously, time until death was measured. Test drugs (30 mg/kg) were suspended in gum arabic and water, which were orally administered (5 ml/kg) to test animals one hour before the injection of ET. The animals in the control group were administered with a suspension of gum arabic in water."}, "ET-induced death": {"system": "ET-induced death", "assay": "Anti-Endotoxin Shock Activity in Rats: ET-induced death", "type": "in vivo, Jcl: SD male rats", "details": "for Number of survivals: 30 mg/kg p.o. one hour before ET, n = 5", "experimental": "as §1"}, "[2]": {"system": "reversed passive Arthus reaction", "assay": "Inhibitory Action Against Reversed Passive Arthus Reaction", "type": "in vivo, Jcl SD male rats", "details": "p.o. (n = 6)", "experimental": "This reaction was conducted, in accordance with the method reported by Chang and Otterness [Eur. J. Pharmacol., 69, 155 (1981)], by using rabbit anti-egg albumin (EA) antiserum. Jcl SD male rats (7 wk) were used. Under ether anesthesia, the hair of the back was cut and 1 ml of a 0.5% solution of EA in physiological saline was injected into the tail vein, followed by intracutaneous injection of 0.1 ml each of the left- and right-hand sides of the back. Vascular permeability was measured as follows. Three hours later, 1 ml of physiological saline containing 1% of Evans blue was given intravenously, and 30 minutes later, the animals were sacrificed by bleeding and the skin excised, and the area of wheals stained with a leakage of the dye (major axis x minor axis, mm^2). The test compounds were suspended in a 5% gum arabic solution, which was administered orally one hour before administration of the antigen."}, "diabetic nephropathy": {"system": "diabetic nephropathy", "assay": "Action Against Diabetic Nephropathy", "type": "in vivo, Female KKAy mice", "details": "for albumin (%) excreted in urine / Amount of albumin excreted in urine / Amount of glucose in plasma / Amount of triglyceride in plasma / Total amount of protein in urine: 3 weeks, N 8; for albumin (%) excreted in urine: in parentheses; for Amount of albumin excreted in urine / Amount of glucose in plasma / Amount of triglyceride in plasma / Total amount of protein in urine: means ±SE", "experimental": "Female KKAy mice of 10 weeks old were employed. Test animals were administered with the compound of Example 62 for three weeks at doses of 8 and 26 mg/kg/day in admixture with feedstuff. Then, urine was collected from these animals for 24 hours. Urine desalted (filtered urine) by means of a PD-10 column (Pharmacia) was employed to determine the total protein concentration in the urine by using a protein-assay kit (Bio-Rad). The amount ot albumin in the urine was calculated from the relative concentration of albumin to the total protein determined by means of electrophoresis.\nGlucose and triglyceride in the plasma were determined by an enzyme method using the Ankol Chemistry System (Baker instruments)."}, "cerebral infarction [3]": {"system": "cerebral infarction", "assay": "Action Against Experimental Cerebral Infarction in Mongolian Gerbils (stroke index)", "type": "in vivo", "details": "30 mg/kg, p.o., N = 5", "experimental": "(§2) Male 10 weeks old Mongolian gerbils were anesthetized with ether. The common carotid artery on both sides was exposed surgically. After waking, the artery was ligated with steel clips for 15 minutes. Then, the clips were removed and the blood was reperfused for three hours. Ataxia symptoms and manifestations of neuro-deficiency were assessed by the method using stroke index [C. P. McGraw: Arch. Neurol., 34, 334-336 (1977)] and inclined plane [A. S. Rivlin et al.: J. Neurosurg., 47, 577-581 (1977)]. The test compounds were orally administered one hour before ligation as a suspension in gum arabic. The control group was administered with the same volume of gum arabic. The number of animals subjected to this experiment was 5 each in both groups."}, "cerebral infarction [4]": {"system": "cerebral infarction", "assay": "Action Against Experimental Cerebral Infarction in Mongolian Gerbils (inclined plane)", "type": "in vivo", "details": "30 mg/kg, p.o., n = 5", "experimental": "as §2"}, "Wistar-strain rats": {"system": "Wistar-strain rats", "assay": "Toxicity Test", "type": "in vivo, Male Wistar-strain rats", "details": "30, 100 and 300 mg/kg per day orally, two weeks", "experimental": "Male Wistar-strain rats (5 wk) were used in groups of five individuals. The animals of the respective groups were orally administered with the compound of Example 62 at the dose of 30, 100 and 300 mg/kg per day over a period of two weeks as a suspension in gum arabic and water at a rate of 10 ml/kg. The animals of the control group were administered with a suspension of gum arabic in water. [Results]"}, "[5]": {"details": "8 and 26 mg/kg/day, three weeks"}}}
{"smiles": "COc1cc2c(cc1OC)CCCC(C(=O)N1CCN(C(=O)c3cc(OC)c(OC)c(OC)c3)CC1)=C2", "note": "[Example 62, 1-(2,3-dimethoxy-6,7-dihydro-5H-benzocyclohepten-8-ylcarbonyl)-4-(3,4,5-trimethoxybenzoyl)piperazine]", "values": [{"measurement": "inhibition at 30 µM", "setting": "[1]", "value": 100, "unit": "%"}, {"measurement": "inhibition in vivo at 30 mg/kg", "setting": "PAF-Induced Hypotension; after 1 hr", "value": 100, "unit": "%"}, {"measurement": "inhibition in vivo at 30 mg/kg", "setting": "PAF-Induced Hypotension; after 2 hrs", "value": 100, "unit": "%"}, {"measurement": "inhibition in vivo at 30 mg/kg", "setting": "PAF-Induced Hypotension; after 4 hrs", "value": 100, "unit": "%"}, {"measurement": "lowering of blood pressure due to ET", "setting": "ET-induced hypotension; 30 mg/kg p.o.", "value": "suppressed significantly"}, {"measurement": "Blood Pressure", "setting": "ET-induced hypotension; 0 min", "value": "92 ± 2", "unit": "mmHg"}, {"measurement": "Blood Pressure", "setting": "ET-induced hypotension; 3 min", "value": "82 ± 6", "unit": "mmHg"}, {"measurement": "Blood Pressure", "setting": "ET-induced hypotension; 5 min, **P < 0.01", "value": "90 ± 4", "unit": "mmHg"}, {"measurement": "Blood Pressure", "setting": "ET-induced hypotension; 10 min, *P < 0.05", "value": "90 ± 4", "unit": "mmHg"}, {"measurement": "Blood Pressure", "setting": "ET-induced hypotension; 15 min", "value": "92 ± 3", "unit": "mmHg"}, {"measurement": "Blood Pressure", "setting": "ET-induced hypotension; 20 min", "value": "95 ± 3", "unit": "mmHg"}, {"measurement": "Number of survivals", "setting": "ET-induced death; 0 hr", "value": 5}, {"measurement": "Number of survivals", "setting": "ET-induced death; 1 hr", "value": 5}, {"measurement": "Number of survivals", "setting": "ET-induced death; 2 hr", "value": 5}, {"measurement": "Number of survivals", "setting": "ET-induced death; 3 hr", "value": 5}, {"measurement": "Number of survivals", "setting": "ET-induced death; 4 hr", "value": 4}, {"measurement": "Number of survivals", "setting": "ET-induced death; 5 hr", "value": 2}, {"measurement": "Number of survivals", "setting": "ET-induced death; 6 hr", "value": 1}, {"measurement": "Number of survivals", "setting": "ET-induced death; 7 hr", "value": 1}, {"measurement": "Number of survivals", "setting": "ET-induced death; 8 hr", "value": 1}, {"measurement": "survival time", "setting": "ET-induced death; 30 mg/kg p.o., control group 108±26 minutes, **", "value": "320 ± 45", "unit": "min"}, {"measurement": "Area of wheals stained with the dye", "setting": "[2]; 3.1 mg/kg", "value": "52.8 ± 2.7", "unit": "mm^2"}, {"measurement": "Preventive effect of reversed passive Arthus reaction", "setting": "[2]; 3.1 mg/kg", "value": 5, "unit": "%"}, {"measurement": "Area of wheals stained with the dye", "setting": "[2]; 12.5 mg/kg", "value": "38.4 ± 6.1", "unit": "mm^2"}, {"measurement": "Preventive effect of reversed passive Arthus reaction", "setting": "[2]; 12.5 mg/kg", "value": 31, "unit": "%"}, {"measurement": "Preventive effect of reversed passive Arthus reaction", "setting": "[2]; 50 mg/kg", "value": 70, "unit": "%"}, {"measurement": "Area of wheals stained with the dye", "setting": "[2]; 50 mg/kg, **P < 0.01", "value": "16.8 ± 5.1", "unit": "mm^2"}, {"measurement": "albumin (%) excreted in urine", "setting": "diabetic nephropathy; 8 mg/kg/day p.o.", "value": 46, "unit": "%"}, {"measurement": "Amount of albumin excreted in urine", "setting": "diabetic nephropathy; 8 mg/kg/day p.o.", "value": "11.0 ± 2.0", "unit": "mg/day"}, {"measurement": "Amount of glucose in plasma", "setting": "diabetic nephropathy; 8 mg/kg/day p.o.", "value": "326 ± 26", "unit": "mg/dL"}, {"measurement": "Amount of triglyceride in plasma", "setting": "diabetic nephropathy; 8 mg/kg/day p.o.", "value": "499 ± 45", "unit": "mg/dL"}, {"measurement": "Total amount of protein in urine", "setting": "diabetic nephropathy; 8 mg/kg/day p.o.", "value": "23.8 ± 2.9", "unit": "mg/day"}, {"measurement": "suppression of excretion of albumin in urine", "setting": "diabetic nephropathy; 26 mg/kg/day", "value": "significant"}, {"measurement": "albumin (%) excreted in urine", "setting": "diabetic nephropathy; 26 mg/kg/day p.o.", "value": 36, "unit": "%"}, {"measurement": "Amount of glucose in plasma", "setting": "diabetic nephropathy; 26 mg/kg/day p.o.", "value": "381 ± 33", "unit": "mg/dL"}, {"measurement": "Amount of triglyceride in plasma", "setting": "diabetic nephropathy; 26 mg/kg/day p.o.", "value": "546 ± 43", "unit": "mg/dL"}, {"measurement": "Total amount of protein in urine", "setting": "diabetic nephropathy; 26 mg/kg/day p.o.", "value": "22.0 ± 3.8", "unit": "mg/day"}, {"measurement": "Amount of albumin excreted in urine", "setting": "diabetic nephropathy; 26 mg/kg/day p.o., *p<0.05 vs control", "value": "8.0 ± 0.7", "unit": "mg/day"}, {"measurement": "excretion of albumin in urine", "setting": "diabetic nephropathy; [5]", "value": "suppressed the excretion of albumin in urine dose-dependently"}, {"measurement": "plasma glucose", "setting": "diabetic nephropathy; [5]", "value": "No change"}, {"measurement": "plasma triglyceride", "setting": "diabetic nephropathy; [5]", "value": "No change"}, {"measurement": "total protein in urine", "setting": "diabetic nephropathy; high dose", "value": "showed a tendency of being suppressed in a high dose"}, {"measurement": "Stroke index", "setting": "cerebral infarction [3]; 15 min after reperfusion, **P < 0.01", "value": "4.2 ± 0.6"}, {"measurement": "Stroke index", "setting": "cerebral infarction [3]; 30 min after reperfusion, **P < 0.01", "value": "3.4 ± 0.5"}, {"measurement": "Stroke index", "setting": "cerebral infarction [3]; 60 min after reperfusion, **P < 0.01", "value": "3.2 ± 0.5"}, {"measurement": "Stroke index", "setting": "cerebral infarction [3]; 120 min after reperfusion, **P < 0.01", "value": "2.0 ± 0"}, {"measurement": "Stroke index", "setting": "cerebral infarction [3]; 180 min after reperfusion, **P < 0.01", "value": "0.8 ± 0.5"}, {"measurement": "Stroke index", "setting": "cerebral infarction [3]; ligation time 0 min", "value": 0}, {"measurement": "Stroke index", "setting": "cerebral infarction [3]; ligation time 15 min, *P < 0.05", "value": "14.0 ± 1.0"}, {"measurement": "Angle of inclined plane where test animals tumble down the ramp", "setting": "cerebral infarction [4]; 15 min after reperfusion", "value": "34 ± 3", "unit": "°"}, {"measurement": "Angle of inclined plane where test animals tumble down the ramp", "setting": "cerebral infarction [4]; 30 min after reperfusion", "value": "35 ± 3", "unit": "°"}, {"measurement": "Angle of inclined plane where test animals tumble down the ramp", "setting": "cerebral infarction [4]; 60 min after reperfusion, *P < 0.05", "value": "35 ± 2", "unit": "°"}, {"measurement": "Angle of inclined plane where test animals tumble down the ramp", "setting": "cerebral infarction [4]; 120 min after reperfusion, *P < 0.05", "value": "36 ± 2", "unit": "°"}, {"measurement": "Angle of inclined plane where test animals tumble down the ramp", "setting": "cerebral infarction [4]; 180 min after reperfusion", "value": "38 ± 2", "unit": "°"}, {"measurement": "Angle of inclined plane where test animals tumble down the ramp", "setting": "cerebral infarction [4]; ligation time 0 min", "value": "47 ± 1", "unit": "°"}, {"measurement": "Angle of inclined plane where test animals tumble down the ramp", "setting": "cerebral infarction [4]; ligation time 15 min", "value": "20 ± 0", "unit": "°"}, {"measurement": "body weight between the control group and the test group", "setting": "Wistar-strain rats", "value": "No difference in body weight"}, {"measurement": "general behaviors", "setting": "Wistar-strain rats", "value": "no change was observed in general behaviors"}, {"measurement": "internal organs under macroscopic observation (autopsy)", "setting": "Wistar-strain rats", "value": "no abnormality in internal organs"}]}
